Measurements taken from article PMC12348882, “Rational Design, Synthesis and In Vitro Activity of Diastereomeric Cis-/Trans-3-Substituted-3,4-Dihydroisocoumarin-4-Carboxylic Acids as Potential Carnitine Acetyltransferase Inhibitors” (Molecules, 2025).
pIC50, pKi: −log10 of the molar value. “Also recorded” adds a separate entry of the source.

Assays:
[1] = biological target: T1, carnitine acetyltransferase (CAT) (Columba livia, UniProt P52826); assay: Kinetic studies of CAT inhibition mechanism (Michaelis-Menten / Lineweaver-Burk, SigmaPlot regression); assay type: biochemical, pigeon; conditions: for pKi: mixed-type inhibition model, L-carnitine varied; for Type / mechanism of inhibition: model chosen by R^2, AIC and Sy,x
T1 construct: an enzyme isolated from pigeon breast muscle (Sigma Aldrich) was used in the form of an ammonium sulfate suspension; tissue Sigma-Aldrich; host or cells: pigeon breast muscle
T1 sequence (P52826 31-627): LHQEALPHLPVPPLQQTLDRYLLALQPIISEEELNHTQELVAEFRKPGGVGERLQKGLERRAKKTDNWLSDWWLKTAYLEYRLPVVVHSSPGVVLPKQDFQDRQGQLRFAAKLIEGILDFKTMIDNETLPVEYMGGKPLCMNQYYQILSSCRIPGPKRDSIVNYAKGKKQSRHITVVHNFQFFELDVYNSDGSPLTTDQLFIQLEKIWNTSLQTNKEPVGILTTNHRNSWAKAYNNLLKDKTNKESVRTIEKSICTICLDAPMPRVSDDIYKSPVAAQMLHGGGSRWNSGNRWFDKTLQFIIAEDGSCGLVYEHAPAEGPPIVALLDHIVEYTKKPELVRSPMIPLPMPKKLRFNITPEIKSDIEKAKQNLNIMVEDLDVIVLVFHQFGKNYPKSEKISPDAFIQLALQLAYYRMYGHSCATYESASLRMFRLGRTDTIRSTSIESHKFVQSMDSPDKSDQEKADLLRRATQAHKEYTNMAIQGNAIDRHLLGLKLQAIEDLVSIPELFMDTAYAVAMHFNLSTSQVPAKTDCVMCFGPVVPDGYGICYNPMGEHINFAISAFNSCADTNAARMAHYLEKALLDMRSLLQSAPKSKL
Source text: These experiments allowed us to identify the inhibition mechanism and calculate Km, Vmax and Ki. We used SigmaPlot version 12.5 (Systat Software Inc., San Jose, CA, USA), which includes modules for regression analysis and various inhibition models. This software also lets us choose the mechanism of inhibition with the highest correlation factors (coefficient of determination (R^2) and Akaike information coefficient (AIC)) and the lowest Sy,x value. The numerical results are summarized in Table 1, while the corresponding Lineweaver–Burk and Michaelis–Menten kinetic plots are available in the Supplementary Materials.
(Michaelis-Menten) and 1/v0 vs. […] (Lainweaver-Burke) relationships. For this purpose, five solutions with different concentrations of the inhibitor and five solutions with different concentrations of L-carnitine were prepared. […] The time for reading the results is every six seconds for three minutes after the start of the reaction, which corresponds to the end of the linear interval. The initial velocity v0 was determined using the method proposed by Baici, by calculating the cut-off of the v vs. t (time) dependence for the linear interval of each of the reactions. Graphical dependencies are provided in the Supplementary Materials (Figures S1–S3).
Figure S2. Graphs representing the dependence of the initial velocity (v 0) on the concentration of the substrate [S], according to the model of Michaelis -Menten – left, and Lineweaver-Burk – right, for reversible a) mixed, b) non-competitive, c) uncompetitive and d) competitive inhibition. The concentration of the inhibitor - compound cis-8 are 0 μM, 25.6 μM, 51.2 μM and 68.3 μM, concentration of L-carnitine are 94 μM, 180 μM, 370 μM, 750 μM and 1500 μM.
Figure S3. Graphs representing the dependence of the initial velocity (v 0) on the concentration of […]
for reversible a) mixed, b) uncompetitive, c) non-competitive and d) competitive inhibition. The concentration of the inhibitor - compound trans-8 are 0 μM, 26.0 μM, 52.0 and 69.4 μM,

[2] = biological target: T1, carnitine acetyltransferase (CAT); assay: Initial screening of CAT inhibition, spectrophotometric kinetic method with Ellman's reagent; assay type: biochemical; conditions: read in first minute of reaction; for inhibition at 100 µM: read-out: CAT inhibition (%), inhibitor 100 μM; for inhibition at 250 µM: read-out: CAT inhibition (%), inhibitor 250 μM; for inhibition at 1000 µM: read-out: CAT inhibition (%), inhibitor 1000 μM
Protocol: To assess the inhibitory potential of the synthesized compounds against CAT, we conducted an initial screening at three concentrations: 100 μM, 250 μM and 1000 μM. Readings were taken within the first minute after the reaction started, and inhibition was measured using a kinetic method, as described in the Experimental section. The results are summarized and presented as a percentage of inhibition in Figure 2 and Figure 3 for the 3-alkyl-3,4-dihydroisocoumarin-4-carboxylic acids and the 3-alkyl/3-aryl-6,7-dimethoxy-3,4-dihydroisocoumarin-4-carboxylic acids, respectively.
To determine the effect of the synthesized compounds on CAT activity, a modified procedure for spectrophotometric determination of L-carnitine using Ellman’s reagent was used. In all analyses, an enzyme isolated from pigeon breast muscle (Sigma Aldrich) was used in the form of an ammonium sulfate suspension with an activity of 71 U/mg protein. One unit of enzyme catalyzes the conversion of 1 μmol of L-carnitine and acetyl-CoA into acetylcarnitine and free CoA in 1 min. Phosphate buffer (0.5 M, pH = 7.6) is used to dilute the enzyme to obtain a stock solution with a concentration of 24 U/mL.
Ellman’s reagent was prepared immediately before each measurement by dissolving 25 mg DTNB in 5 mL 1 mM solution of Na2EDTA in phosphate buffer (0.5 M, pH = 7.6). Stock solutions of acetyl-CoA and L-carnitine were prepared in deionized water with concentrations of 348.0 μM and 303.4, respectively. An aqueous solution of tris (hydroxymethyl) aminomethane (TRIS) with pH = 7.6 and 1 M concentration was used as a buffer solution. Test compounds were dissolved and diluted in phosphate buffer (0.5 M, pH = 7.6) to the desired stock concentration. The working volume of the reaction is 300 μL and contains 50 μL of each of the six components (DTNB, TRIS, acetyl-CoA, CAT, L-carnitine and inhibitor) solutions with concentrations as described below. In the control samples, the inhibitor solution is replaced with phosphate buffer (0.5 M, pH = 7.6). The incubation time for all components without L-carnitine is 5 min at 37 °C. The reaction was started by adding L-carnitine, and its progress was monitored by reading the change in absorbance at 405 nm in kinetic mode. The concentrations of the components in the final volume were, c (DTNB) = 114 μM, c (TRIS) = 100 mM, c (acetyl-CoA) = 58 μM, c (CAT) = 4 U/mL and c (L-carnitine) = 50.56 μM. The time for reading the results was the first minute after starting the reaction.

[3] = biological target: carnitine acetyltransferase (CAT); parameters: method as in PMID 39942839; conditions: positive control; ref [21]; cited from earlier work
[4] = fit to competitive inhibition model
[5] = fit to non-competitive inhibition model
[6] = fit to uncompetitive inhibition model
[7] = non-competitive inhibition model

CCCCCCCCCCC1OC(=O)c2cc(OC)c(OC)cc2C1C(=O)O (racemic) [trans-8, Cis- and Trans-(±)-3-Decyl-3,4-Dihydro-6,7-Dimethoxy-1-Oxo-1H-Isochromene-4-Carboxylic Acids]
AIC [1, 4]: −1490.723
Sy,x [1, 4]: 7.493 × 10^−9
AIC ([1]; fit to mixed inhibition model): −1548.364
Sy,x ([1]; fit to mixed inhibition model): 3.576 × 10^−9
AIC [1, 5]: −1542.332
Sy,x [1, 5]: 3.931 × 10^−9
AIC [1, 6]: −1548.795
Sy,x [1, 6]: 3.626 × 10^−9
α ([1]; mixed inhibition model): 0.21
pKi [1]: 3.42
Type / mechanism of inhibition [1]: mixed-type inhibitors
Type / mechanism of inhibition ([1]; listed as trans-3-decyl-6,7-dimethoxy-3,4-dihydroisocoumarin-4-carboxylic acid): mixed inhibition
α [1, 7]: 1

CCCCCCCCCCC1OC(=O)c2cc(OC)c(OC)cc2C1C(=O)O (racemic) [cis-8, Cis- and Trans-(±)-3-Decyl-3,4-Dihydro-6,7-Dimethoxy-1-Oxo-1H-Isochromene-4-Carboxylic Acids]
inhibition at 100 µM [2]: 44%
inhibition at 250 µM [2]: 71%
inhibition at 1000 µM [2]: 85%
AIC [1, 4]: −1519.782
Sy,x [1, 4]: 5.211 × 10^−9
AIC ([1]; fit to mixed inhibition model): −1562.764
Sy,x ([1]; fit to mixed inhibition model): 2.987 × 10^−9
AIC [1, 5]: −1565.380
Sy,x [1, 5]: 2.947 × 10^−9
AIC [1, 6]: −1550.555
Sy,x [1, 6]: 3.547 × 10^−9
α ([1]; mixed inhibition model): 0.97
pKi [1]: 3.89
Type / mechanism of inhibition [1]: mixed-type inhibitors; also recorded: allosteric inhibitor
Type / mechanism of inhibition ([1]; listed as cis-3-decyl-6,7-dimethoxy-3,4-dihydroisocoumarin-4-carboxylic acid): mixed inhibition
α [1, 7]: 1

CCCC1OC(=O)c2ccccc2C1C(=O)O (mixture of isomers) [M2-1, Cis- and Trans-(±)-3-Propyl-3,4-Dihydro-1-Oxo-1H-Isochromene-4-Carboxylic Acids]
CAT inhibition (%) ([2]; inhibitor 100 μM): 1%
CAT inhibition (%) ([2]; inhibitor 250 μM): 3%
CAT inhibition (%) ([2]; inhibitor 1000 μM): 7%

COc1ccc(OC)c(C2OC(=O)c3cc(OC)c(OC)cc3C2C(=O)O)c1 (stereo not drawn) [cis-11, Cis- and Trans-(±)-3,4-Dihydro-3-(2,5-Dimethoxyphenyl)-6,7-Dimethoxy-1-Oxo-1H-Isochromene-4-Carboxylic Acids]
inhibition at 100 µM [2]: 1%
inhibition at 250 µM [2]: 6%
inhibition at 1000 µM [2]: 22%

CCCCCCCC1OC(=O)c2ccccc2C1C(=O)O (racemic) [cis-2, Cis- and Trans-(±)-3-Heptyl-3,4-Dihydro-1-Oxo-1H-Isochromene-4-Carboxylic Acids]
inhibition at 100 µM [2]: 3%
inhibition at 250 µM [2]: 10%
inhibition at 1000 µM [2]: 16%

CCCCCCCCCC1OC(=O)c2ccccc2C1C(=O)O (racemic) [cis-3, Cis- and Trans-(±)-3,4-Dihydro-3-Nonyl-1-Oxo-1H-Isochromene-4-Carboxylic Acids]
inhibition at 100 µM [2]: 9%
inhibition at 250 µM [2]: 28%
inhibition at 1000 µM [2]: 97%

CCCCCCCCCC1OC(=O)c2ccccc2C1C(=O)O (racemic) [trans-3, Cis- and Trans-(±)-3,4-Dihydro-3-Nonyl-1-Oxo-1H-Isochromene-4-Carboxylic Acids]
CAT inhibition (%) ([2]; inhibitor 100 μM, 100 µM): 17%
CAT inhibition (%) ([2]; inhibitor 250 μM, 250 µM): 40%
CAT inhibition (%) ([2]; inhibitor 1000 μM, 1000 µM): 91%

CCCCCCCCCCC1OC(=O)c2ccccc2C1C(=O)O (racemic) [trans-4, Cis- and Trans-(±)-3-Decyl-3,4-Dihydro-1-Oxo-1H-Isochromene-4-Carboxylic Acids]
CAT inhibition (%) ([2]; inhibitor 100 μM, 100 µM): 54%
CAT inhibition (%) ([2]; inhibitor 250 μM, 250 µM): 79%
CAT inhibition (%) ([2]; inhibitor 1000 μM): 97%

CCCCCCCC1OC(=O)c2cc(OC)c(OC)cc2C1C(=O)O (racemic) [cis-6, Cis- and Trans-(±)-3-Heptyl-3,4-Dihydro-6,7-Dimethoxy-1-Oxo-1H-Isochromene-4-Carboxylic Acids]
inhibition at 1000 µM [2]: 27%

COc1cc2c(cc1OC)C(C(=O)O)C(c1ccccc1)OC2=O (racemic) [trans-9, Cis- and Trans-(±)-3,4-Dihydro-6,7-Dimethoxy-1-Oxo-3-Phenyl-1H-Isochromene-4-Carboxylic Acids]
inhibition at 100 µM [2]: 1%

CCCCCCCCCCC1OC(=O)c2ccccc2C1C(=O)O (racemic) [cis-4, Cis- and Trans-(±)-3-Decyl-3,4-Dihydro-1-Oxo-1H-Isochromene-4-Carboxylic Acids]
CAT inhibition (%) ([2]; inhibitor 100 μM, 100 µM): 31%
inhibition at 250 µM [2]: 96%
inhibition at 1000 µM [2]: 97%

CCCCCCCC1OC(=O)c2ccccc2C1C(=O)O (racemic) [trans-2, Cis- and Trans-(±)-3-Heptyl-3,4-Dihydro-1-Oxo-1H-Isochromene-4-Carboxylic Acids]
CAT inhibition (%) ([2]; inhibitor 100 μM, 100 µM): 4%
CAT inhibition (%) ([2]; inhibitor 250 μM, 250 µM): 6%
CAT inhibition (%) ([2]; inhibitor 1000 μM, 1000 µM): 25%

CCCCCCCCCC1OC(=O)c2cc(OC)c(OC)cc2C1C(=O)O (racemic) [cis-7, Cis- and Trans-(±)-3,4-Dihydro-6,7-Dimethoxy-3-Nonyl-1-Oxo-1H-Isochromene-4-Carboxylic Acids]
inhibition at 100 µM [2]: 8%
inhibition at 250 µM [2]: 43%
inhibition at 1000 µM [2]: 85%

COc1cc2c(cc1OC)C(C(=O)O)C(c1cccc(OC)c1OC)OC2=O (racemic) [cis-10, Cis- and Trans-(±)-3,4-Dihydro-3-(2,3-Dimethoxyphenyl)-6,7-Dimethoxy-1-Oxo-1H-Isochromene-4-Carboxylic Acids]
inhibition at 100 µM [2]: 1%
inhibition at 250 µM [2]: 2%
inhibition at 1000 µM [2]: 12%

C[N+](C)(C)NCCC(=O)[O-] [Meldonium]
pIC50 [3]: 1.94
